Experimental data published in patent US20190175728A1, “NUCLEIC ACID-ANTIGEN PEPTIDE CONJUGATE” (NAPAJEN PHARMA, INC., priority 2017, published 2019).
No end group written: not given here.

What was measured:
[1] = system: OVA257-264 presenting cells (CFSE^high spleen cells); assay: In vivo CTL assay; design: species or system C57BL/6J mice; conditions: target cells given day 7, counted after 24 hours
Experimental: SPG/dA40(S)-OVA257-264 (20, 100, 500 ng in the amount of OVA257-264) and CpG-dA40(S)/SPG (30 μg in the amount of CpG-dA) were intradermally administered to C57BL/6J mice.
On day 7 of administration, spleen cells were provided according to the following procedure. Spleen cells excised from normal C57BL/6J mice were treated with 10 μg/ml of OVA257-264 at 37° C. for 90 minutes. Thereafter, the spleen cells were washed three times with PBS, and the spleen cells were labeled with 5 μM carboxyfluorescein succinimidyl ester (CFSE); Invitrogen, Carlsbad, Calif.). Further, spleen cells not treated with OVA257-264 were similarly labeled with CFSE (0.5 μM). The labeled cells were washed three times with PBS. The spleen cells treated with OVA257-264 (CFSE^high) and the spleen cells not treated with OVA257-264 (CFSE^low) were mixed so that the number of the treated spleen cells was equal to the number of the untreated spleen cells. […] After that, the spleen cells were removed from the mice, and the CFSE-labeled cells were counted by flow cytometry.
OVA257-264 presenting cells were not observed when the dose of OVA257-264 was 100 ng/head or more. […] The difference in ability of inducing CTL reaction between SPG/dA40(S)-OVA257-264 and OVA257-264-click-dA40(S)/SPG was consistent with the result of Example 5 in which the antigen presenting ability was evaluated.

[2] = biological target: T1, murine endoplasmic reticulum aminopeptidase (Mus musculus, UniProt Q9EQH2); assay: Cleavage of dA40(S)-peptide conjugate by endoplasmic reticulum aminopeptidase (polyacrylamide gel electrophoresis); type: biochemical; conditions: conjugate 1.5 μM, aminopeptidase 0.5 μg/ml, 25 mM Tris buffer pH 8.0, 37° C., 18 hours
T1 construct: purchased R & D Systems 2500-ZN
T1 sequence (Q9EQH2 1-930): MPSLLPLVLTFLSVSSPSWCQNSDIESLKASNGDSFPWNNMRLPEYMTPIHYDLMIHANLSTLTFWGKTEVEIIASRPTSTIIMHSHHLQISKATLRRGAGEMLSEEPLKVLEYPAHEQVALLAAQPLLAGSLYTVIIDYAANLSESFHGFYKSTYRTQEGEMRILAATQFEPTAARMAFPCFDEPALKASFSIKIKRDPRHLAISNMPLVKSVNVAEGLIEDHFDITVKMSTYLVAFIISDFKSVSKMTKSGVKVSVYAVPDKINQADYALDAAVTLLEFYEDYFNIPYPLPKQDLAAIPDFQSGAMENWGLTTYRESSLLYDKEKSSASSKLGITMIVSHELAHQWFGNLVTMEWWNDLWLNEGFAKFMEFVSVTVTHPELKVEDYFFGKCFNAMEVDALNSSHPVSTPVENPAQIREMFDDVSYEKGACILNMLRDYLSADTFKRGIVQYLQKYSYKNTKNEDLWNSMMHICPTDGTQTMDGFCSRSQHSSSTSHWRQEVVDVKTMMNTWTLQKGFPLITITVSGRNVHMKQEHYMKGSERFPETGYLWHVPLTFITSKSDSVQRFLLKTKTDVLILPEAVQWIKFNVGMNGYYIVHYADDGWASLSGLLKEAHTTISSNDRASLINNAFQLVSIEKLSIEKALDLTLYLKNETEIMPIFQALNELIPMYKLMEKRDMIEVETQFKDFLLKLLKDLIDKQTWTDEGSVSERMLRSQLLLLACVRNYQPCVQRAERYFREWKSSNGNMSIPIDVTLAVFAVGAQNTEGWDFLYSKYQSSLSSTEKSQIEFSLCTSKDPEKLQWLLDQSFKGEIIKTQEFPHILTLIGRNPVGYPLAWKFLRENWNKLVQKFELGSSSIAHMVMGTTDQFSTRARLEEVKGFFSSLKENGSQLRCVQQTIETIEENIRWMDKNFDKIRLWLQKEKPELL
Experimental: Each of the dA40(S)-peptide conjugates (1.5 μM) and murine endoplasmic reticulum aminopeptidase (0.5 μg/ml) (R & D Systems catalog Number 2500-ZN) were added to a 25 mM Tris buffer (pH 8.0) and the mixture was incubated at 37° C. for 18 hours. After completion of the reaction, polyacrylamide gel electrophoresis was carried out to observe the state of release from the dA40(S)-peptide conjugate.
In FIG. 2, pep(C)-dA40(S) represents a dA40(S)-peptide conjugate obtained by using peptide 1, dA40(S)-(C)pep represents a dA40(S)-peptide conjugate obtained by using peptide 2, dA40(S)-(C)pep long represents a dA40(S)-peptide conjugate obtained by using peptide 3, and dA40(S)-(C)pep long miss (L→K) represents a dA40(S)-peptide conjugate obtained by using peptide 4. […] Aminopeptidase is one of the enzymes that trim antigen peptides to present the antigen peptides to MHC. Accordingly, it is important for antigen presentation using the dA40(S)-peptide conjugate that even in the case of the peptide in which polydeoxyadenine is bonded to the N-terminal cysteine, the C-terminal side is composed of the hydrophobic amino acid residue. This fact was confirmed.

[3] = system: macrophages recovered from the peritoneal cavity; assay: Antigen presenting ability of dA40(S)-peptide conjugates, fluorescence microscopy after anti-OVA257-264/H-2Kb PE staining; type: cell-based, C57BL/6J mice; conditions: conjugate 10 μM, 18 hours, 1.5×10^5 cells/well
Experimental: (§1) 3 ml of thioglycollate medium was administered to the peritoneal cavity of C57BL/6J mice 3 days later, macrophages were recovered from the peritoneal cavity. The resulting macrophages were seeded in 48 wells (1.5×10^5 cells/well), and further each of the dA40(S)-peptide conjugates was added to the wells at a concentration of 10 μM. […], the fixed cells were stained with Anti-Mouse OVA257-264 (SIINFEKL) peptide bound to H-2Kb PE, and the resulting cells were subjected to fluorescence microscopic observation.
In FIG. 3, pep(C)-dA40(S) represents a dA40(S)-peptide conjugate obtained by using peptide 1, dA40(S)-(C)pep represents a dA40(S)-peptide conjugate obtained by using peptide 2, dA40(S)-(C)pep long represents a dA40(S)-peptide conjugate obtained by using peptide 3, and dA40(S)-(C)pep long miss (L→K) represents a dA40(S)-peptide conjugate obtained by using peptide 4.

[4] = system: macrophages recovered from the peritoneal cavity; assay: Antigen presenting ability of SPG/dA40(S)-OVA257-264, flow cytometry after anti-OVA257-264/H-2Kb PE staining; type: cell-based, C57BL/6J mice; conditions: concentration of OVA257-264 5 μg/ml, 18 hours
Experimental: as §1, with “SPG/dA40(S)-OVA257-264, dA40(S)-OVA257-264, or OVA257-264-click-dA40(S)/SPG” for “each of the dA40(S)-peptide conjugates”, “added” for “added to the wells”, “OVA257-264 of 5 μg/ml.” for “10 μM.”, “analyzed by flow cytometry.” for “subjected to fluorescence microscopic observation.”

[5] = biological target: T2, dA40(S)-peptide conjugate obtained by using peptide 1
T2 chain: SIINFEKLC

[6] = biological target: T3, dA40(S)-peptide conjugate obtained by using peptide 3
T3 chain: CQLESIINFEKL

[7] = biological target: T4, dA40(S)-peptide conjugate obtained by using peptide 2
T4 chain: CSIINFEKL

In the case of “SPG/dA40(S)-OVA257-264: complex of dA40(S)-OVA257-264 and schizophyllan (SPG) (SIINFEKL; also: dA40(S) conjugate, site not given here, complex with schizophyllan (SPG); UniProt P01012 258-265, looked up, fragment)”, the “decrease in OVA257-264 presenting cells (CFSE^high spleen cells)” value ([1]; intradermal, 20, 100, 500 ng OVA257-264, together with CpG-dA40(S)/SPG 30 μg) is reported as “observed depending on the dose of OVA257-264” and the “dose of OVA257-264 at which OVA257-264 presenting cells were not observed” value ([1]; intradermal, together with CpG-dA40(S)/SPG 30 μg) is reported as at least 100 ng/head.

With “dA40(S)-(C)pep long miss (L→K): dA40(S) disulfide-bonded via LC-SPDP linker to N-terminal cysteine of peptide 4, CSIINFEKK (SEQ ID NO: 4) (cyclised or stapled)” the “state of release from the dA40(S)-peptide conjugate after enzyme treatment” value [2] was “not recognized by the enzyme” and the “fluorescence of OVA257-264 (SIINFEKL) bound to H-2Kb (antigen presentation)” value [3] was “antigen presentation hardly occurred”.

In the case of “dA40(S)-OVA257-264: conjugate of dA40(S) and ovalbumin antigen peptide OVA257-264 (SIINFEKL), prepared in the manner described in Example 1 (also: dA40(S) conjugate, site not given here; UniProt P01012 258-265, looked up, fragment)”, the “antigen (OVA257-264) presentation level” value [4] is reported as “the same as that of SPG/dA40(S)-OVA257-264”.

In the case of “pep(C)-dA40(S): dA40(S) disulfide-bonded via LC-SPDP linker to C-terminal cysteine of peptide 1, SIINFEKLC (SEQ ID NO: 1) (cyclised or stapled)”, the “state of release from the dA40(S)-peptide conjugate after enzyme treatment” value [2] is reported as “no change was observed in the electrophoretic distance” and the “fluorescence of OVA257-264 (SIINFEKL) bound to H-2Kb (antigen presentation)” value [3] is reported as “Very weak fluorescence”.

B1: murine endoplasmic reticulum aminopeptidase (R & D Systems catalog Number 2500-ZN) (protein)
chain: DIESLKASNGDSFPWNNMRLPEYMTPIHYDLMIHANLSTLTFWGKTEVEIIASRPTSTIIMHSHHLQISKATLRRGAGEMLSEEPLKVLEYPAHEQVALLAAQPLLAGSLYTVIIDYAANLSESFHGFYKSTYRTQEGEMRILAATQFEPTAARMAFPCFDEPALKASFSIKIKRDPRHLAISNMPLVKSVNVAEGLIEDHFDITVKMSTYLVAFIISDFKSVSKMTKSGVKVSVYAVPDKINQADYALDAAVTLLEFYEDYFNIPYPLPKQDLAAIPDFQSGAMENWGLTTYRESSLLYDKEKSSASSKLGITMIVSHELAHQWFGNLVTMEWWNDLWLNEGFAKFMEFVSVTVTHPELKVEDYFFGKCFNAMEVDALNSSHPVSTPVENPAQIREMFDDVSYEKGACILNMLRDYLSADTFKRGIVQYLQKYSYKNTKNEDLWNSMMHICPTDGTQTMDGFCSRSQHSSSTSHWRQEVVDVKTMMNTWTLQKGFPLITITVSGRNVHMKQEHYMKGSERFPETGYLWHVPLTFITSKSDSVQRFLLKTKTDVLILPEAVQWIKFNVGMNGYYIVHYADDGWASLSGLLKEAHTTISSNDRASLINNAFQLVSIEKLSIEKALDLTLYLKNETEIMPIFQALNELIPMYKLMEKRDMIEVETQFKDFLLKLLKDLIDKQTWTDEGSVSERMLRSQLLLLACVRNYQPCVQRAERYFREWKSSNGNMSIPIDVTLAVFAVGAQNTEGWDFLYSKYQSSLSSTEKSQIEFSLCTSKDPEKLQWLLDQSFKGEIIKTQEFPHILTLIGRNPVGYPLAWKFLRENWNKLVQKFELGSSSIAHMVMGTTDQFSTRARLEEVKGFFSSLKENGSQLRCVQQTIETIEENIRWMDKNFDKIRLWLQKEKPELL
In the case of B1, the “release of dA40(S) from the conjugate, polyacrylamide gel electrophoresis after enzyme treatment” value (“release of dA40(S) from the conjugate” below) [5] is reported as “no change was observed in the electrophoretic distance even when subjected to enzyme treatment”, the “release of dA40(S) from the conjugate” value [6] is reported as “the peptide was almost completely released and a band of dA40(S) was observed” and the “release of dA40(S) from the conjugate” value [7] is reported as “a band of dA40(S) was slightly observed after the enzyme treatment”.
